Results on 11 compounds are retold here after PubChem BioAssay AID180 (DTP/NCI, 2004).

Structures are written as SMILES. Where “and” joins values, the source holds several entries; their conditions need not be identical. Equal entries are not always repeated.

This assay concerns BDF1 mice, Adenocarcinoma 755 s.c., tumor weight T/C. The experiment in a line: NCI In Vivo Anticancer Drug Screen. Data for tumor model Adenocarcinoma 755 (subcutaneous) in B6D2F1 (BDF1) mice. The conditions noted are these: endpoint: mean tumor weight, schedule: Q01DX011 (ip), higher = larger tumour. The procedure, abridged:
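Compound activity was tested in mice carrying transplanted tumors. Survival or tumor size was measured, and each value is the treated-group measurement divided by that of the vehicle-treated control group (T/C).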

Where [1] appears, read: dose: 5.0 mg/kg/injection, vehicle: methylcellulose (MC).
[2] abbreviates: dose: 8.0 mg/kg/injection, vehicle: carboxymethylcellulose (CMC).
[3] abbreviates: dose: 10.0 mg/kg/injection, vehicle: methylcellulose (MC).
[4] abbreviates: dose: 20.0 mg/kg/injection, vehicle: methylcellulose (MC).
[5] abbreviates: dose: 40.0 mg/kg/injection, vehicle: methylcellulose (MC).
Setting [6] is: dose: 25.0 mg/kg/injection, vehicle: carboxymethylcellulose (CMC).
The mark [7] stands for this setting: dose: 100.0 mg/kg/injection, vehicle: carboxymethylcellulose (CMC).
[8] abbreviates: dose: 150.0 mg/kg/injection, vehicle: carboxymethylcellulose (CMC).

In the case of `Clc1ccc(N2CCN(CCCN3CCN(c4cccc(Cl)c4)CC3)CC2)cc1`, the T/C under setting [1] is 71 % of control; the T/C under setting [2] was 83 % of control; the T/C under setting [3] was 62 % of control and 72 % of control; the T/C (dose: 12.0 mg/kg/injection, vehicle: carboxymethylcellulose (CMC)) is 103 % of control; the T/C (dose: 18.0 mg/kg/injection, vehicle: carboxymethylcellulose (CMC)) was 40 % of control; the T/C under setting [4] is 65 % of control. Moreover, the T/C is 46 % of control (dose: 27.0 mg/kg/injection, vehicle: carboxymethylcellulose (CMC)); 47 % of control (dose: 30.0 mg/kg/injection, vehicle: carboxymethylcellulose (CMC)); 25 % of control under setting [5]; 26 % of control (dose: 60.0 mg/kg/injection, vehicle: carboxymethylcellulose (CMC)).

Turning to `CC(=O)Nc1c(Cl)cc2c(c1Cl)Cc1cc([N+](=O)[O-])ccc1-2`, the T/C (dose: 0.8 mg/kg/injection, vehicle: carboxymethylcellulose (CMC)) is 32 % of control; the T/C (dose: 1.6 mg/kg/injection, vehicle: carboxymethylcellulose (CMC)) was 47 % of control; the T/C (dose: 3.0 mg/kg/injection, vehicle: other) is 61 % of control; the T/C (dose: 3.12 mg/kg/injection, vehicle: carboxymethylcellulose (CMC)) was 25 % of control; the T/C (dose: 6.0 mg/kg/injection, vehicle: other) is 87 % of control; the T/C (dose: 6.25 mg/kg/injection, vehicle: carboxymethylcellulose (CMC)) is 31 % of control and 33 % of control. The T/C by setting is: (dose: 6.25 mg/kg/injection, vehicle: other) 59 % of control; (dose: 12.5 mg/kg/injection, vehicle: carboxymethylcellulose (CMC)) 15 % of control; (dose: 12.5 mg/kg/injection, vehicle: other) 22 % of control and 35 % of control; under setting [6], 9 % of control; (dose: 25.0 mg/kg/injection, vehicle: other) 24 % of control and 45 % of control; (dose: 50.0 mg/kg/injection, vehicle: carboxymethylcellulose (CMC)) 9 % of control. For the same compound, the T/C is 31 % of control and 35 % of control (dose: 50.0 mg/kg/injection, vehicle: other); 8 % of control under setting [7]; 30 % of control (dose: 100.0 mg/kg/injection, vehicle: other); 6 % of control and 25 % of control (dose: 200.0 mg/kg/injection, vehicle: carboxymethylcellulose (CMC)); 26 % of control (dose: 200.0 mg/kg/injection, vehicle: other); 6 % of control (dose: 300.0 mg/kg/injection, vehicle: carboxymethylcellulose (CMC)). In addition, the T/C (dose: 400.0 mg/kg/injection, vehicle: other) was 20 % of control.

As for `CCCCN(C)N=Nc1ccc(S(N)(=O)=O)cc1`, the T/C was 91 % of control (dose: 4.0 mg/kg/injection, vehicle: carboxymethylcellulose (CMC)); 90 % of control and 77 % of control under setting [2]; 33 % of control (dose: 31.0 mg/kg/injection, vehicle: carboxymethylcellulose (CMC)); 108 % of control and 84 % of control (dose: 32.0 mg/kg/injection, vehicle: carboxymethylcellulose (CMC)); 42 % of control (dose: 62.0 mg/kg/injection, vehicle: carboxymethylcellulose (CMC)); 55 % of control (dose: 93.0 mg/kg/injection, vehicle: carboxymethylcellulose (CMC)).

In the case of `Nc1nc(SCc2ccccn2)c2[nH]cnc2n1`, the T/C reads like this: (dose: 0.78 mg/kg/injection, vehicle: methylcellulose (MC)) 63 % of control; (dose: 1.56 mg/kg/injection, vehicle: methylcellulose (MC)) 14 % of control; (dose: 3.12 mg/kg/injection, vehicle: methylcellulose (MC)) 3 % of control; (dose: 6.25 mg/kg/injection, vehicle: methylcellulose (MC)) 2 % of control.

On to `CC(/C=N\N=C(N)N)=N/N=C(N)N`, for which the T/C by setting is: (dose: 5.75 mg/kg/injection, vehicle: carboxymethylcellulose (CMC)) 84 % of control; (dose: 7.62 mg/kg/injection, vehicle: carboxymethylcellulose (CMC)) 77 % of control; (dose: 11.5 mg/kg/injection, vehicle: carboxymethylcellulose (CMC)) 78 % of control; (dose: 15.24 mg/kg/injection, vehicle: carboxymethylcellulose (CMC)) 71 % of control; (dose: 18.4 mg/kg/injection, vehicle: carboxymethylcellulose (CMC)) 70 % of control and 86 % of control; (dose: 23.0 mg/kg/injection, vehicle: carboxymethylcellulose (CMC)) 93 % of control and 100 % of control and 80 % of control. The T/C by setting is: (dose: 30.48 mg/kg/injection, vehicle: carboxymethylcellulose (CMC)) 42 % of control; (dose: 46.0 mg/kg/injection, vehicle: carboxymethylcellulose (CMC)) 29 % of control and 45 % of control and 51 % of control; (dose: 60.96 mg/kg/injection, vehicle: carboxymethylcellulose (CMC)) 35 % of control.

For `Cc1cc(N=Nc2ccc(-c3ccc(N=Nc4ccc(O)c(C(=O)O)c4)cc3)cc2)c(N)c(N=Nc2ccc(C(=O)Nc3ccc4cc(S(=O)(=O)O)ccc4c3)cc2)c1N`, the T/C runs as follows: (dose: 45.0 mg/kg/injection, vehicle: carboxymethylcellulose (CMC)) 158 % of control; (dose: 65.0 mg/kg/injection, vehicle: carboxymethylcellulose (CMC)) 119 % of control; under setting [7], 69 % of control; under setting [8], 72 % of control.

For the compound `Nc1nc2c(ncn2C2CCCC2)c(=O)[nH]1`, the T/C by setting is: under setting [6], 88 % of control; (dose: 75.0 mg/kg/injection, vehicle: carboxymethylcellulose (CMC)) 63 % of control; (dose: 225.0 mg/kg/injection, vehicle: carboxymethylcellulose (CMC)) 59 % of control.

For `CC(CNC(=O)CCBr)CNC(=O)CCBr`, the T/C (dose: 113.0 mg/kg/injection, vehicle: carboxymethylcellulose (CMC)) was 51 % of control.

Turning to `CC1=CCN2CCC(O)C12` (configuration not stated), the T/C (dose: 38.0 mg/kg/injection, vehicle: carboxymethylcellulose (CMC)) is 95 % of control and the T/C under setting [8] was 75 % of control.

Turning to `OCCN1CCN(CC/C=C2/c3ccccc3Sc3ccc(Cl)cc32)CC1`, the T/C runs as follows: (dose: 2.5 mg/kg/injection, vehicle: methylcellulose (MC)) 90 % of control and 88 % of control; under setting [1], 40 % of control and 42 % of control; under setting [3], 32 % of control; under setting [4], 17 % of control.

Take `Cc1cc(=O)c2c(C)cccc2[nH]1`: the T/C runs as follows: (dose: 10.0 mg/kg/injection, vehicle: carboxymethylcellulose (CMC)) 112 % of control; under setting [3], 60 % of control; (dose: 20.0 mg/kg/injection, vehicle: carboxymethylcellulose (CMC)) 105 % of control; under setting [4], 59 % of control; (dose: 40.0 mg/kg/injection, vehicle: carboxymethylcellulose (CMC)) 86 % of control; under setting [5], 72 % of control. Moreover, the T/C reads like this: (dose: 80.0 mg/kg/injection, vehicle: carboxymethylcellulose (CMC)) 58 % of control and 60 % of control and 75 % of control; (dose: 80.0 mg/kg/injection, vehicle: methylcellulose (MC)) 57 % of control; (dose: 160.0 mg/kg/injection, vehicle: carboxymethylcellulose (CMC)) 106 % of control; (dose: 320.0 mg/kg/injection, vehicle: carboxymethylcellulose (CMC)) 106 % of control.
